This passage reports AC50 results from ChEMBL document CHEMBL5291721, “A preclinical secondary pharmacology resource illuminates target-adverse drug reaction associations of marketed drugs” (Nat Commun, 2023).

Assay [1] addresses T1, Neuropeptide Y receptor type 1 (Homo sapiens, UniProt P25929).
T1 sequence (P25929 whole entry): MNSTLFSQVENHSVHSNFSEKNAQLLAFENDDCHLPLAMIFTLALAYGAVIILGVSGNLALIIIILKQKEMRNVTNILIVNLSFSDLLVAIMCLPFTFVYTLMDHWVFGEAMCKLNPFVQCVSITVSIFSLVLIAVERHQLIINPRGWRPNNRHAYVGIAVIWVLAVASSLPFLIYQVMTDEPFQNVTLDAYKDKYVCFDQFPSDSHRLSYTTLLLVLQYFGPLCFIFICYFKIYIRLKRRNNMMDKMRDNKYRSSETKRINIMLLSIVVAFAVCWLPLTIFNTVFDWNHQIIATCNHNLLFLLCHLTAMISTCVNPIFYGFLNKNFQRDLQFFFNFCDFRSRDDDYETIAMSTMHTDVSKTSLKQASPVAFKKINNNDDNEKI

The target of assay [2] is Kappa-type opioid receptor (Homo sapiens, UniProt P41145).
Assay [3] has as its target T2, 5-hydroxytryptamine receptor 2B (Homo sapiens, UniProt P41595). Type of assay: functional, cell-based.
Assay [4] addresses Voltage-gated inwardly rectifying potassium channel KCNH2 (Homo sapiens, UniProt Q12809). Type of assay: functional. Particulars: read-out: AC50.
For assay [5], the target named is Beta-1 adrenergic receptor (Homo sapiens, UniProt P08588). Type of assay: functional.
In assay [6] the target is Sodium-dependent serotonin transporter (Homo sapiens, UniProt P31645).
Assay [7] deals with 5-hydroxytryptamine receptor 2A (Homo sapiens, UniProt P28223). Type of assay: functional, cell-based.
Assay [8] addresses cGMP-inhibited 3',5'-cyclic phosphodiesterase 3A (Homo sapiens, UniProt Q14432). The class given is functional.
The target in assay [9] is Histamine H1 receptor (Homo sapiens, UniProt P35367).
The target of assay [10] is T3, Equilibrative nucleoside transporter 1 (Homo sapiens, UniProt Q99808).
T3 sequence (Q99808 whole entry): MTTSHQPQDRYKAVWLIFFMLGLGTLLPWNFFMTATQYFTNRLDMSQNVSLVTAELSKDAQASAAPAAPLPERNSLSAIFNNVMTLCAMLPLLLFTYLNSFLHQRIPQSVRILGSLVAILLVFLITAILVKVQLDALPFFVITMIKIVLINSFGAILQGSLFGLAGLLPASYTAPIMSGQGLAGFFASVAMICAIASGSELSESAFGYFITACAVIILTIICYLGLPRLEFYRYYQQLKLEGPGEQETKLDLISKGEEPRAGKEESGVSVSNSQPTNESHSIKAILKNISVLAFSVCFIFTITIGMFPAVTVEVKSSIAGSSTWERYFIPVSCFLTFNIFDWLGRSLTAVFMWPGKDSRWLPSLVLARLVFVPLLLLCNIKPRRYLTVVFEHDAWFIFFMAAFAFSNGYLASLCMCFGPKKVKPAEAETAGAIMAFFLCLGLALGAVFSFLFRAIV

Assay [11] concerns the target D(3) dopamine receptor (Homo sapiens, UniProt P35462).
For assay [12], the target named is T4, Alpha-2C adrenergic receptor (Homo sapiens, UniProt P18825).
T4 sequence (P18825 whole entry): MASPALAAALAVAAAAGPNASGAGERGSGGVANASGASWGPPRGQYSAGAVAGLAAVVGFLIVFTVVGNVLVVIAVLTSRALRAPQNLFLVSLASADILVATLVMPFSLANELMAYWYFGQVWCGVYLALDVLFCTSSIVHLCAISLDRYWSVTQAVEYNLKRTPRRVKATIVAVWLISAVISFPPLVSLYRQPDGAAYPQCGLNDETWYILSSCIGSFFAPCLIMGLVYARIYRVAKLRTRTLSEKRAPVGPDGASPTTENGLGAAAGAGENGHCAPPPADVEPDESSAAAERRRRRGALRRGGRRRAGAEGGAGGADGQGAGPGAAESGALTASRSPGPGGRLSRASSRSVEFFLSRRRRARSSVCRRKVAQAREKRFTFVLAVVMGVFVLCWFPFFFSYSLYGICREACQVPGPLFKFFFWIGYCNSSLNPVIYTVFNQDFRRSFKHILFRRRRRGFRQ
The class given is functional.

Assay [13] concerns the target T2, 5-hydroxytryptamine receptor 2B. Type of assay: functional, cell-based. The source holds these as a separate data set.
The target of assay [14] is T5, Alpha-2B adrenergic receptor (Homo sapiens, UniProt P18089).
T5 sequence (P18089 whole entry): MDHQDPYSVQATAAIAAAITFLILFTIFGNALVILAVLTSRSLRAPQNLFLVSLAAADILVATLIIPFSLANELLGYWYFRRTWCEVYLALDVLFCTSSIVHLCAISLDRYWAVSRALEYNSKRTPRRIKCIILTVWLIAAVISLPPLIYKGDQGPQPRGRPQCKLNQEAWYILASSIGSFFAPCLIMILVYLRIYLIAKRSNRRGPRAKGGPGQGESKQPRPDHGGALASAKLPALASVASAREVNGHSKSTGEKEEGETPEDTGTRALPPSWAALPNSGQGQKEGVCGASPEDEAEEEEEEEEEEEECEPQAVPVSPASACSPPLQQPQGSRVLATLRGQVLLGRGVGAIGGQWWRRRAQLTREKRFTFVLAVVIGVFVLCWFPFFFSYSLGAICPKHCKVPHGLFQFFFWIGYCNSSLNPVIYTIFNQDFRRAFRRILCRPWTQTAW
Note: assay procedure not described here.

Sequence of Histamine H1 receptor (P35367 whole entry): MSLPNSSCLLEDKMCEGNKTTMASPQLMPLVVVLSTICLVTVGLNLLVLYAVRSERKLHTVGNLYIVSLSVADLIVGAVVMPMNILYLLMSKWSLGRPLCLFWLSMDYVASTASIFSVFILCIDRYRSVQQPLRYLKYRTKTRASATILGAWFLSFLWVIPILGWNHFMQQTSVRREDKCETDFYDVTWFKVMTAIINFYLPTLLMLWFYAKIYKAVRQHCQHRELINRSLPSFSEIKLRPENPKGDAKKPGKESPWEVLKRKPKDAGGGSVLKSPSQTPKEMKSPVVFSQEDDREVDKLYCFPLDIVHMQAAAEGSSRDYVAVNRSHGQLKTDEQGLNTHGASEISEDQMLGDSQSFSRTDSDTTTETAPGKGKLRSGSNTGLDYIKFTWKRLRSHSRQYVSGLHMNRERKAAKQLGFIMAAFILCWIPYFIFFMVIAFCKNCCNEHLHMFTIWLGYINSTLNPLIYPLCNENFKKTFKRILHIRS
T2 sequence (P41595 whole entry): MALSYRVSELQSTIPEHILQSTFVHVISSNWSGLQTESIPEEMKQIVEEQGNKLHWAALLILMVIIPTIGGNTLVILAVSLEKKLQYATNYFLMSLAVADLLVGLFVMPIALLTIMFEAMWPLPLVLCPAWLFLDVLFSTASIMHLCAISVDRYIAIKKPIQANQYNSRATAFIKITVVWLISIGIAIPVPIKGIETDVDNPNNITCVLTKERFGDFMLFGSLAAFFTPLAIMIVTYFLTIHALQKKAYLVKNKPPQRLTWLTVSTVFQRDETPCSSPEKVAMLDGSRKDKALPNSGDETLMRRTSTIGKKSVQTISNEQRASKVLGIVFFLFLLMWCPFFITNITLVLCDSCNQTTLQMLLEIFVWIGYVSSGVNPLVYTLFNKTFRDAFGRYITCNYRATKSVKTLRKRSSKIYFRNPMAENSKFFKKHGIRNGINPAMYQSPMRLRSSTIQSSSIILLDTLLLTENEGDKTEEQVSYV
Sequence of cGMP-inhibited 3',5'-cyclic phosphodiesterase 3A (Q14432 whole entry): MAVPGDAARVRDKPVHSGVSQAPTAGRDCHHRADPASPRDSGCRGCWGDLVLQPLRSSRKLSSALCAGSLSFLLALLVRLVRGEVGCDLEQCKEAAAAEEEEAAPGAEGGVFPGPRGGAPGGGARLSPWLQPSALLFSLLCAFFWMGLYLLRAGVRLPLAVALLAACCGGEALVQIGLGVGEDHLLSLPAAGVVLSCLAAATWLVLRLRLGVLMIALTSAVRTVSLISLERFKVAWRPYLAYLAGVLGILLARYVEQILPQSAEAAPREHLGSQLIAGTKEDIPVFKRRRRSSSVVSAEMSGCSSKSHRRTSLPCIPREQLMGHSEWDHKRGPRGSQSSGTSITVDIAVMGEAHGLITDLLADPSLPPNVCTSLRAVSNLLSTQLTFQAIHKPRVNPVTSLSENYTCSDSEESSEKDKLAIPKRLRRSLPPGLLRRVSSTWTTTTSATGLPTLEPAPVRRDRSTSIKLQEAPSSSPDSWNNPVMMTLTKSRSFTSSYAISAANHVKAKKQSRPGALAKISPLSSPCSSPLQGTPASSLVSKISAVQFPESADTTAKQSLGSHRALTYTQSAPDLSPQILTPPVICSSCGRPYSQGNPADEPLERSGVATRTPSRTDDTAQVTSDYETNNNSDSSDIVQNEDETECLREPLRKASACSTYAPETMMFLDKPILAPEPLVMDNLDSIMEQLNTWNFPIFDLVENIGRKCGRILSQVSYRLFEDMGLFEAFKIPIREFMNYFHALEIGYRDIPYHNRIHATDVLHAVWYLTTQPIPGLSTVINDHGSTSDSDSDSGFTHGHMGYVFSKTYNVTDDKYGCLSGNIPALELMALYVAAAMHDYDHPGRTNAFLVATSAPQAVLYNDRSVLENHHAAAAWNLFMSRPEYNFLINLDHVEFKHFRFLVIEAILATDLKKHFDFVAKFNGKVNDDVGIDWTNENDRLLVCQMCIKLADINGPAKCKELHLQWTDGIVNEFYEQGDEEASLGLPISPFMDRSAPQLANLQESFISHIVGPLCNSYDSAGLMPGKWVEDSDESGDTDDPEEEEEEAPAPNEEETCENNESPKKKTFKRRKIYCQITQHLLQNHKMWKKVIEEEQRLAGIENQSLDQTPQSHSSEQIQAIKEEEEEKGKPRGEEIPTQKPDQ
Sequence of Kappa-type opioid receptor (P41145 whole entry): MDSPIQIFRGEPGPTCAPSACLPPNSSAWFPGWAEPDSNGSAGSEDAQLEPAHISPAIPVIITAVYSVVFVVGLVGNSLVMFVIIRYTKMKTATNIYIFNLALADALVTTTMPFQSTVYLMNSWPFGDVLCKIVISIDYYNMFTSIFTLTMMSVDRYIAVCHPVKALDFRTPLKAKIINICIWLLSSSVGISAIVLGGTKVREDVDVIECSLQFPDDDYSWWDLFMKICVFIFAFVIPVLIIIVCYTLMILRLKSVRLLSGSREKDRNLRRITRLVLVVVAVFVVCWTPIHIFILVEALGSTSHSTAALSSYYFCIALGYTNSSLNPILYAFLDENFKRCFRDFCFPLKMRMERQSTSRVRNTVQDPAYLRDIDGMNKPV
Sequence of Voltage-gated inwardly rectifying potassium channel KCNH2 (Q12809 whole entry): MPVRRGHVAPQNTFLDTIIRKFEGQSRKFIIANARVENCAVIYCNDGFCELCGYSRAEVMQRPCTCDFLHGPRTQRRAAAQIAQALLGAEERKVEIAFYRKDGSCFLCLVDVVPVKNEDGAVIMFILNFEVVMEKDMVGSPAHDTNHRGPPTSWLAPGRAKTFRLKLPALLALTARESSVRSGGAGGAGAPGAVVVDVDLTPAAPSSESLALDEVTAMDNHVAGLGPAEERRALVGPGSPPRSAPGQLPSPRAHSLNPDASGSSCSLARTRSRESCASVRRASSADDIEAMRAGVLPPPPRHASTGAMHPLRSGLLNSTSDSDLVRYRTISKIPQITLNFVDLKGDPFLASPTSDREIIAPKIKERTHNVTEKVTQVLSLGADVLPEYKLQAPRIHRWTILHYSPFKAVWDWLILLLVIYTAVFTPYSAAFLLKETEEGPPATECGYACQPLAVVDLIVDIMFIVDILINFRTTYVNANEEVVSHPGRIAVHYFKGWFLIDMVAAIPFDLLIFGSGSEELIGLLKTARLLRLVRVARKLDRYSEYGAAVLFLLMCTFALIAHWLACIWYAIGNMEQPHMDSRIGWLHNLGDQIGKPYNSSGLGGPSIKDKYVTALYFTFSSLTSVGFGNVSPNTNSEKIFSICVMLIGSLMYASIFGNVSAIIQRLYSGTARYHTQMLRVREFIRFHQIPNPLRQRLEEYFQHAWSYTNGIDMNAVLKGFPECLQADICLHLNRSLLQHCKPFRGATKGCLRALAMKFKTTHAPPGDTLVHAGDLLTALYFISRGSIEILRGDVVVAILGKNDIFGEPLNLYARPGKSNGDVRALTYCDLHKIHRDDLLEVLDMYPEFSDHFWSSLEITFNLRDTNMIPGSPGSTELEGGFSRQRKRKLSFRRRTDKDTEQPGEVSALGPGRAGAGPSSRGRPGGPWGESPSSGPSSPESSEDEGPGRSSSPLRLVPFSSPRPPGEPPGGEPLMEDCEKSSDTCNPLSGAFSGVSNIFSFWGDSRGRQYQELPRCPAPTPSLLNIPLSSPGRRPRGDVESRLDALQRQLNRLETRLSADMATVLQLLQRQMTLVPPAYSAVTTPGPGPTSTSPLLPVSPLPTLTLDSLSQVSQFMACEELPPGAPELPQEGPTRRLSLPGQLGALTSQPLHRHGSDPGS
Sequence of D(3) dopamine receptor (P35462 whole entry): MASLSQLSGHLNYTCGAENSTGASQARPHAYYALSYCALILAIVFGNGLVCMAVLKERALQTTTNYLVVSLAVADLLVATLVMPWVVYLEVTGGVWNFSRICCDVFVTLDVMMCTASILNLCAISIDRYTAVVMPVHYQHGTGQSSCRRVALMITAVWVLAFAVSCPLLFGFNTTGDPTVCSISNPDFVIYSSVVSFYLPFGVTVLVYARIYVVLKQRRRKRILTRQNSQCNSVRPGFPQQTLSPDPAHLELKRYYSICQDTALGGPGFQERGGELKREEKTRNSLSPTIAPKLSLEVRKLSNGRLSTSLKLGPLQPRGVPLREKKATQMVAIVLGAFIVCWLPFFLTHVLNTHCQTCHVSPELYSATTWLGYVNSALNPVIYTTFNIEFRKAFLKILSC
Sequence of 5-hydroxytryptamine receptor 2A (P28223 whole entry): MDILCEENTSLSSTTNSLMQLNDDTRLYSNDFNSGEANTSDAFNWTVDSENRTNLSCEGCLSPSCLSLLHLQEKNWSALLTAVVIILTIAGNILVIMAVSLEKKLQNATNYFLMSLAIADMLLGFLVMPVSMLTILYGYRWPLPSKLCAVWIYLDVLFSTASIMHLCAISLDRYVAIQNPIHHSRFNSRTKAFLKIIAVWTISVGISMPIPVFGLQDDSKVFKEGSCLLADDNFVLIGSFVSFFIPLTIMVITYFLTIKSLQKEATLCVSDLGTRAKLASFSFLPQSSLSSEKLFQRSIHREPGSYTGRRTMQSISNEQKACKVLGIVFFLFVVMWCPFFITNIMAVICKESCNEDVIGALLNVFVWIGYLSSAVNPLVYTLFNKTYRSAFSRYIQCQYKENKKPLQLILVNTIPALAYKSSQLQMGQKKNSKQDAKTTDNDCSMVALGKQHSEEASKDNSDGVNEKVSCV
Sequence of Beta-1 adrenergic receptor (P08588 whole entry): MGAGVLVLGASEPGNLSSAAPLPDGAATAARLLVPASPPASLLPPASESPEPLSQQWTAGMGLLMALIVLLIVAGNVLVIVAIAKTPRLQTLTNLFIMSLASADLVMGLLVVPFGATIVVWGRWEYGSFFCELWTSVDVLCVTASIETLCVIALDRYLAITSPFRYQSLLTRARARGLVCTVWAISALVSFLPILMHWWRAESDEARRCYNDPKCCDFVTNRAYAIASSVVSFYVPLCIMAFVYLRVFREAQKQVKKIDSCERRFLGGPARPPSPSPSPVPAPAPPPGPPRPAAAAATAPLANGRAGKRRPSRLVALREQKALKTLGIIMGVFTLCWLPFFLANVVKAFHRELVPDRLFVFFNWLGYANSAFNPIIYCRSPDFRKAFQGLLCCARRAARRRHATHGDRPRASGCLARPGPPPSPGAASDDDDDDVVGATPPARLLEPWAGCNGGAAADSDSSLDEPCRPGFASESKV

With `CCOC(=O)Nc1ccc2c(c1)N(C(=O)CCN1CCOCC1)c1ccccc1S2` [MORICIZINE], the AC50 in assay [1] is over 30 µM; in assay [2], over 30 µM; in [3], over 30 µM; in assay [4], 19 µM; in [5] it was over 30 µM; in assay [6] it was over 30 µM. The AC50 in [7], in assay [8], in assay [9], in assay [10], in assay [11] and in [12] was over 30 µM in each case. Moreover, the AC50 in [13] and in assay [14] was over 30 µM each time.
As for `CC(CCc1ccccc1)NC(C)C(O)c1ccc(O)cc1` (stereo not given) [NYLIDRIN], the AC50 is over 30 µM in assay [1]; 4.98 µM in assay [2]; over 10 µM in assay [3]; 6.3 µM in assay [4]; 3.95 µM in assay [5]; over 10 µM in [6]. In addition, the AC50 in assay [7] was over 30 µM; in assay [8], over 30 µM; in assay [9], over 10 µM; in [10], over 30 µM; in assay [11] it was 1.3 µM; in assay [12], 0.64 µM. Further, the AC50 in assay [13] was 6.9 µM; in assay [14], 0.73 µM.
Consider `CC(=O)O[C@H]1C[C@@H]2CC[C@@H]3[C@H](CC[C@@]4(C)[C@H]3C[C@H]([N+]3(C)CCCCC3)[C@@H]4OC(C)=O)[C@@]2(C)C[C@@H]1[N+]1(C)CCCCC1` [PANCURONIUM], for which the AC50 in assay [1] is over 10 µM; in [2], over 10 µM; in assay [3] it was over 10 µM; in assay [4], 1.26 µM; in [5], over 10 µM; in assay [6] it was over 10 µM. The AC50 was over 10 µM in assay [7]; over 30 µM in assay [8]; over 10 µM in assay [9]; over 10 µM in [10]; over 30 µM in assay [11]; over 10 µM in assay [12]. The half-maximal activity concentration (AC50) in assay [13] and in assay [14] was over 10 µM in each case.
In the case of `CC1(C)C(C=C(Cl)Cl)C1C(=O)OCc1cccc(Oc2ccccc2)c1` (stereo not given) [PERMETHRIN], the AC50 in assay [1] is over 10 µM; in [2], over 10 µM; in assay [3], over 10 µM; in assay [4] it was over 30 µM; in [5], over 10 µM; in assay [6], over 10 µM. Moreover, the AC50 in assay [7] was over 10 µM; in [8] it was over 30 µM; in [9], over 10 µM; in assay [10], over 10 µM; in [11] it was over 30 µM; in assay [12], over 10 µM. Moreover, the AC50 in assay [13] and in [14] was over 10 µM each time.
Consider `CC(=O)c1ccc2c(c1)N(CCCN1CCC(CCO)CC1)c1ccccc1S2` [PIPERACETAZINE], for which the AC50 was over 30 µM in [1]; 4 µM in assay [2]; over 30 µM in [3]; 0.5 µM in [4]; over 30 µM in [5]; 1.3 µM in assay [6]. The half-maximal activity concentration (AC50) in [7] is over 30 µM; in [8], over 10 µM; in assay [9], 0.034 µM; in assay [10] it was over 30 µM; in [11], 0.017 µM; in assay [12], 0.37 µM. The AC50 in assay [13] amounted to 4.7 µM; in [14] it was 0.068 µM.
Take `Cc1ccc(=O)n(-c2ccccc2)c1` [PIRFENIDONE]: the concentration at half-maximal activity (AC50) in assay [1], in assay [2], in assay [3], in [4], in assay [5] and in assay [6] was over 30 µM throughout. Besides, the AC50 in assay [7], in [8], in [9], in [10], in [11] and in [12] was over 30 µM in each case. Also, the AC50 in assay [13] and in assay [14] was over 30 µM throughout.
For `NC(=O)CCC/N=C(\c1ccc(Cl)cc1)c1cc(F)ccc1O` [PROGABIDE], the AC50 in assay [1] is over 10 µM; in assay [2] it was over 10 µM; in [3], over 10 µM; in assay [4] it was over 30 µM; in assay [5], over 10 µM; in assay [6], over 10 µM. Besides, the AC50 in [7] is over 10 µM; in [8] it was over 30 µM; in assay [9] it was over 10 µM; in assay [10], over 10 µM; in assay [11], over 30 µM; in assay [12], over 10 µM. Also, the AC50 in assay [13] and in assay [14] was over 10 µM throughout.
Consider `CCN(CC)CC(=O)Oc1ccc(NC(C)=O)cc1` [PROPACETAMOL], for which the AC50 in [1] was over 30 µM; in [2] it was 18 µM; in assay [3] it was over 30 µM; in assay [4], over 30 µM; in [5], over 30 µM; in assay [6], over 30 µM. Also, the AC50 in assay [7], in [8], in [9], in assay [10], in assay [11] and in assay [12] was over 30 µM each time. Further, the AC50 in assay [13] and in assay [14] was over 30 µM each time.
With `CCCOC(C(=O)OC1CCN(C)CC1)(c1ccccc1)c1ccccc1` [PROPIVERINE], the AC50 in assay [1] was over 30 µM; in assay [2] it was 11 µM; in assay [3] it was over 30 µM; in [4], 3.2 µM; in assay [5], over 30 µM; in [6], over 30 µM. In addition, the AC50 is over 30 µM in [7]; over 30 µM in [8]; 18 µM in assay [9]; over 30 µM in assay [10]; 2.5 µM in assay [11]; over 30 µM in [12]. The AC50 in assay [13] was 16 µM; in assay [14], over 30 µM.
Consider `CC(NCCc1ccc(O)cc1)C(O)c1ccc(O)cc1` (stereo not given) [RITODRINE], for which the AC50 was over 30 µM in assay [1]; 14.4 µM in [2]; over 30 µM in assay [3]; over 30 µM in [4]; 17 µM in assay [5]; 16.3 µM in assay [6]. For the same compound, the AC50 in [7], in assay [8], in assay [9], in assay [10], in assay [11] and in [12] was over 30 µM throughout. Moreover, the AC50 in assay [13] and in assay [14] was over 30 µM throughout.

Broadly, the AC50 is the concentration at which the activity in the assay is half-maximal.
